How the values were obtained:
[1] = system: integrated stress response; experiment: Integrated stress response; type: cell-based
[2] = system: spared nerve injury (SNI) model; experiment: Spared nerve injury (SNI) neuropathic pain model; type: in vivo, mice
[3] = system: neurite outgrowth; experiment: Neurite outgrowth; type: cell-based

OCCCN1CC[C@@H]2C[C@H]1c1cc(-c3ccc(C(F)(F)F)cc3)ccc12 [FEM-1689, 3-((1S,5R)-8-(4-(Trifluoromethyl)phenyl)-1,3,4,5-tetrahydro-2H-1,5-methanobenzo[c]azepin-2-yl) propan-1-ol]
effect on the integrated stress response [1]: inhibits the integrated stress response
analgesic effect after SNI ([2]; global σ2R/TMEM97 knockout mouse): fails to produce an analgesic effect
mechanical hypersensitivity after SNI ([2]; wild-type male and female mice): reverses mechanical hypersensitivity
effect on neurite outgrowth [3]: promotes neurite outgrowth

— patent US20250387403A1, “SELECTIVE SIGMA-2 RECEPTOR LIGANDS AS MODULATORS OF TMEM97” (BOARD OF REGENTS, THE UNIVERSITY OF TEXAS SYSTEM, priority 2022, published 2025)
